These are literature values, as cited in US20090054507A1, “CONTROL OF MALIGNANT CELLS BY KINASE INHIBITION” (CLEVELAND STATE UNIVERSITY, priority 2006, published 2009).

Each structure is given as a SMILES string.

For this data set the following is noted: 25 mg/kg twice daily, injections in mice; cited from earlier work.

Turning to `CN(C)c1nc2c(Br)c(Br)c(Br)c(Br)c2[nH]1` [DMAT, 2-dimethylamino-4,5,6,7-tetrabromo-1H-benzimidazole], the “effect on the kidney, bone marrow, and liver as assessed histologically” value is recorded as “had no effect”.
